According to patent US8673929B2, “4,6-di- and 2,4,6-trisubstituted quinazoline derivatives and pharmaceutical compositions useful for treating viral infections” (priority 2006, dated 2014):

Key:
[1] = CC50 assay in the anti-HCV replicon assay (CellTiter-Glo); format: cell-based, human; conditions: human, Huh-7 hepatoma cells harbouring an HCV replicon; Huh-7 HCV replicon cells, 3 days incubation, CellTiter-Glo luminescence
Description: (§1) The anti HCV activity of the quinazoline derivatives of this invention was tested in a human hepatoma Huh-7 cell line harbouring a HCV replicon. The assay comprised the following steps:
(§2) Step 1: compound preparation and serial dilution • 1. for water soluble quinazoline derivatives, a volume of 500 μL of solution in cell media (DMEM, 10% FBS, P/S, L-Glutamine) was prepared with a concentration being twice the concentration of the starting final serial dilution concentration. A volume of 150 μL of the solution was added to the pre-specified wells in column 1 of a 96-well cell culture plate (PerkinElmer, white plate, cat. #6005181, for EC50 assay; black plate, cat. #6005182 for CC50 assay). The rest of the plate, columns 2-12, was filled with 100 μL of cell media. The plate was then placed on a Precision 2000 Workstation to start the serial dilution. Compounds were diluted three times each step from column 1 to column 10. Column 11 was used as a blank control (no compound added). • 2. for quinazoline derivatives requiring DMSO to dissolve, serial dilution is performed in 50% DMSO in a 384-well plate. A solution containing a compound at 100-fold concentration of the starting final serial dilution concentration was prepared in 50% DMSO and added to the pre-specified wells in column 1 of a polypropylene 384-well plate. The plate was then placed on a Precision 2000 Workstation to start the serial dilution. After the serial dilution, a volume of 2 μL of the solution was transferred from the 384-well plate to a 96-well cell culture plate containing 100 μL of cell media on a Biomek FX Workstation. The DMSO concentration in the final assay condition was 0.5% after cells are added to the plate and the total volume in each well is brought to 200 μL.
(§3) Step 2: to each well of the serial dilution plate prepared above, 100 μL of cell media containing 6000 suspended Huh-7 HCV replicon cells was added with a Multidrop workstation. The plates were incubated for 3 days at 37° C. with 5% CO2.
(§4) Step 3: detection: • a) for the EC50 assay, the media in a 96-well cell culture plate was aspirated with a Biotek EL405 plate-washer. A volume of 200 μL of a solution containing a 1:1 mixture of cell-lysis buffer (Promega, Luciferase Cell Culture Lysis 5× Reagent, cat. #E1531) and luciferase substrate solution (Promega, Luciferase Assay, cat.# E4550) was added to each well of the plate with Multidrop. The plate was incubated for 30 minutes at room temperature before the luminescence signal was measured with a TopCount plate-reader. • b) for the CC50 assay, a volume of 100 μL of pre-mixed CellTiter-Glo (Promega, cat.# G7572) solution is added directly to the cell culture in each well of the plate and the luminescence signal is measured with a TopCount plate-reader after 10 minutes of incubation at room temperature.
(§5) Results in the table below are expressed by the following data: • the 50% cytostatic concentration (CC50), i.e. the concentration that results in 50% inhibition of cell growth, and • the 50% effective concentration (EC50), i.e. the concentration that […].

HCV replicon = assay: Anti-HCV replicon assay, EC50 (luciferase readout); format: cell-based; conditions: Hepatitis C virus, 72 h; Huh-7 HCV replicon cells, 3 days incubation, luciferase luminescence
Description: as §1, §2, §3, §4, §5

| SMILES | CC50 at 3 days [1] | EC50 (HCV replicon) |
| --- | --- | --- |
| CCOc1nc(N)nc2ccc(-c3cccc(F)c3F)cc12 [Example 38] | 10 to 20 µM | 1000 to 10000 nM |
| CCOc1nc(N)nc2ccc(-c3ccco3)cc12 [Example 44, 4-Ethoxy-6-furan-2-yl-quinazolin-2-ylamine] | > 20 µM | 1000 to 10000 nM |
| COCCOc1nc(N)nc2ccc(-c3ccccc3C(F)(F)F)cc12 [Example 53, 4-(2-Methoxy-ethoxy)-6-(2-trifluoromethyl-phenyl)-quinazolin-2-ylamine] | < 10 µM | 1000 to 10000 nM |
| CCOc1nc(NCc2ccc(S(N)(=O)=O)cc2)nc2ccc(-c3ccc(NC(N)=O)cc3)cc12 [Example 254, 4-{[4-ethoxy-6-(4-ureido-phenyl)-quinazolin-2-ylamino]-methyl}-benzenesulfonamide] | < 10 µM | < 300 nM |
| CCOc1nc(NCc2ccc(S(N)(=O)=O)cc2)nc2ccc(-c3cccc(S(N)(=O)=O)c3)cc12 [Example 252, 4-{[6-(3-aminosulfonyl-phenyl)-4-ethoxy-quinazolin-2-ylamino]-methyl}-benzenesulfonamide] | < 10 µM | < 300 nM |
| CCOc1nc(N)nc2ccc(-c3cccs3)cc12 [Example 42, 4-Ethoxy-6-thiophen-2-yl-quinazolin-2-ylamine] | < 10 µM | 1000 to 10000 nM |
| CC(C)Oc1nc(N)nc2ccc(-c3ccc(C(=O)N(C)C)cc3)cc12 [Example 127, 4-(2-Amino-4-isopropoxy-quinazolin-6-yl)-N,N-dimethyl-benzamide] | > 20 µM | 1000 to 10000 nM |
| CC(C)Oc1nc(N)nc2ccc(-c3ccc(F)c(F)c3F)cc12 [Example 97, 4-Isopropoxy-6-(2,3,4-trifluoro-phenyl)-quinazolin-2-ylamine] | > 20 µM | 300 to 1000 nM |
| CC(C)Oc1nc(N)nc2ccc(-c3ccc(C(=O)NC4CCCC4)cc3)cc12 [Example 175, 4-(2-Amino-4-isopropoxy-quinazolin-6-yl)-N-cyclopentyl-benzamide] | < 10 µM | < 300 nM |
| CC(C)Oc1nc(N)nc2ccc(-c3ccc(F)cc3Cl)cc12 [Example 81, 6-(2-Chloro-4-fluoro-phenyl)-4-isopropoxy-quinazolin-2-ylamine] | 10 to 20 µM | 1000 to 10000 nM |
| Nc1nc(OCC2CCC2)c2cc(-c3cn[nH]c3)ccc2n1 [Example 120, 4-Cyclobutylmethoxy-6-(2H-pyrazol-4-yl)-quinazolin-2-ylamine] | 10 to 20 µM | 300 to 1000 nM |
| Nc1nc(OCC2CCC2)c2cc(-c3ccc(F)cc3)ccc2n1 [Example 103, 4-Cyclobutylmethoxy-6-(4-fluoro-phenyl)-quinazolin-2-ylamine] | 10 to 20 µM | 1000 to 10000 nM |
| CN(C)CCCOc1nc(N)nc2ccc(-c3ccc(Cl)cc3)cc12 [Example 232, 6-(4-Chloro-phenyl)-4-(3-dimethylamino-propoxy)-quinazolin-2-ylamine] | > 20 µM | 1000 to 10000 nM |
| Nc1nc(OCC2CCC2)c2cc(-c3ccc(F)c(F)c3F)ccc2n1 [Example 121, 4-Cyclobutylmethoxy-6-(2,3,4-trifluoro-phenyl)-quinazolin-2-ylamine] | > 20 µM | 1000 to 10000 nM |
| CCOc1nc(N)nc2ccc(-c3ccc(C(=O)NC4CC4)cc3)cc12 [Example 167, 4-(2-Amino-4-ethoxy-quinazolin-6-yl)-N-cyclopropyl-benzamide] | > 20 µM | < 300 nM |
| CCOc1nc(N)nc2ccc(-c3ccoc3)cc12 [Example 40, 4-Ethoxy-6-furan-3-yl-quinazolin-2-ylamine] | > 20 µM | 1000 to 10000 nM |
| Nc1nc(OCC2CCC2)c2cc(-c3cccc(C(F)(F)F)c3)ccc2n1 [Example 106, 4-Cyclobutylmethoxy-6-(3-trifluoromethyl-phenyl)-quinazolin-2-ylamine] | 10 to 20 µM | 1000 to 10000 nM |

| SMILES | CC50 at 3 days [1] | EC50 (HCV replicon) |
| --- | --- | --- |
| CCOc1ccc(-c2ccc3nc(N)nc(OCC4CCC4)c3c2)cc1 [Example 109, 4-Cyclobutylmethoxy-6-(4-ethoxy-phenyl)-quinazolin-2-ylamine] | > 20 µM | 1000 to 10000 nM |
| CONC(=O)c1ccc(-c2ccc3nc(N)nc(OCCF)c3c2)cc1 [Example 203, 4-[2-Amino-4-(2-fluoro-ethoxy)-quinazolin-6-yl]-N-methoxy-benzamide] | > 20 µM | 1000 to 10000 nM |
| Nc1nc(OCCN2CCOCC2)c2cc(-c3ccc(O)cc3)ccc2n1 [Example 235, 4-[2-Amino-4-(2-morpholin-4-yl-ethoxy)-quinazolin-6-yl]-phenol] | > 20 µM | 1000 to 10000 nM |
| CC(C)Oc1nc(N)nc2ccc(-c3ccc(C(=O)N4CCCCC4)cc3)cc12 [Example 169, [4-(2-Amino-4-isopropoxy-quinazolin-6-yl)-phenyl]-piperidin-1-yl-methanone] | > 20 µM | 1000 to 10000 nM |
| CCOc1nc(NCc2ccc(S(N)(=O)=O)cc2)nc2ccc(-c3ccc(F)cc3)cc12 [Example 250, 4-{[4-Ethoxy-6-(4-fluoro-phenyl)-quinazolin-2-ylamino]-methyl}-benzenesulfonamide] | < 10 µM | 1000 to 10000 nM |
| CN(C)CCNC(=O)c1ccc(-c2ccc3nc(NCc4ccc(F)cc4)nc(O[C@H]4CCOC4)c3c2)cc1 [Example 249, (S)-4-(2-(4-fluorobenzylamino)-4-(tetrahydrofuran-3-yloxy)quinazolin-6-yl)-N-(2-(dimethylamino)ethyl)benzamide] | < 10 µM | < 300 nM |
| COCCOc1nc(N)nc2ccc(-c3ccc(F)cc3C)cc12 [Example 67, 6-(4-Fluoro-2-methyl-phenyl)-4-(2-methoxy-ethoxy)-quinazolin-2-ylamine] | 10 to 20 µM | 1000 to 10000 nM |
| Nc1nc(OCCN2CCOCC2)c2cc(-c3cc4ccccc4s3)ccc2n1 [Example 240, 6-Benzo[b]thiophen-2-yl-4-(2-morpholin-4-yl-ethoxy)-quinazolin-2-ylamine] | > 20 µM | 1000 to 10000 nM |
| CCOc1nc(N)nc2ccc(-c3ccc(C(=O)NC(C)(C)C)cc3)cc12 [Example 153, 4-(2-Amino-4-ethoxy-quinazolin-6-yl)-N-tert-butyl-benzamide] | 10 to 20 µM | 300 to 1000 nM |
| CCOc1nc(N)nc2ccc(-c3ccc(C(=O)NOC)cc3)cc12 [Example 156, 4-(2-Amino-4-ethoxy-quinazolin-6-yl)-N-methoxy-benzamide] | > 20 µM | 300 to 1000 nM |
| CC(C)Oc1nc(N)nc2ccc(-c3ccccc3C(F)(F)F)cc12 [Example 77, 4-Isopropoxy-6-(2-trifluoromethyl-phenyl)-quinazolin-2-ylamine] | 10 to 20 µM | 1000 to 10000 nM |
| N#Cc1ccc(-c2ccc3nc(N)nc(OCC4CCC4)c3c2)cc1 [Example 122, 4-(2-Amino-4-cyclobutylmethoxy-quinazolin-6-yl)-benzonitrile] | > 20 µM | 1000 to 10000 nM |
| COCCOc1nc(N)nc2ccc(-c3cccs3)cc12 [Example 58, 4-(2-Methoxy-ethoxy)-6-thiophen-2-yl-quinazolin-2-ylamine] | > 20 µM | 1000 to 10000 nM |
| CC(C)Oc1nc(N)nc2ccc(-c3ccco3)cc12 [Example 88, 6-Furan-2-yl-4-isopropoxy-quinazolin-2-ylamine] | > 20 µM | 1000 to 10000 nM |
| CC(C)Oc1nc(N)nc2ccc(-c3ccc(C(=O)NC4CCCCC4)cc3)cc12 [Example 172, 4-(2-Amino-4-isopropoxy-quinazolin-6-yl)-N-cyclohexyl-benzamide] | < 10 µM | 300 to 1000 nM |
| Nc1nc(OCCF)c2cc(-c3ccc(O)cc3)ccc2n1 [Example 209, 4-[2-Amino-4-(2-fluoro-ethoxy)-quinazolin-6-yl]-phenol] | > 20 µM | 1000 to 10000 nM |
| Nc1nc(OCC2CCC2)c2cc(-c3ccco3)ccc2n1 [Example 116, 4-Cyclobutylmethoxy-6-furan-2-yl-quinazolin-2-ylamine] | > 20 µM | 1000 to 10000 nM |
